Source: EP0062018A1, “Novel phenyl-piperidines” (priority 1981, dated 1982)
Counter-ions that a name gives are not always drawn. Like-named read-outs stand apart in the source and are kept apart here.

Assays:
rabbit right atria = assay: Chronotropic effect (heart frequency) in isolated spontaneously beating right atria; assay type: cell-based; settings: for Emax / EC50: Oryctolagus cuniculus, rabbit right atria, heart rate; for Emax: read-out: HR ISA; for EC50: cumulative concentrations, Krebs-buffer pH 7.4, 32°C, read-out: HR EC50; for positive chronotropic effect: result in words, isolated rabbit right atria
Protocol: (§1) Pharmacological studies on cardiac effects on heart frequency and contractility in isolated right atria and papillary muscle from rabbit. Rabbits with an average weight of 2.5 kg were killed by a blow and the hearts were rapidly removed. The right atria and a papillary muscle from the right ventricle were isolated and set up to contract isometrically in an organ bath. The bath contained 50 ml Krebs-buffer (pH 7.4) and the temperature was kept at 32°C. The contractions were measured by means of a force displacement transducer (Grass Model FT03) coupled to a Grass Model 7 Polygraph with a […] (Grass Model 7PIF). The spontaneously beating right atria was stretched to a resting tension high enough to measure the contractions and to trigger a tachograph for registration of the frequency. The papillary muscle was stretched to the length at which maximal tension was developed and was driven at a frequency of 1 Hz by a current 20 per cent above treshold and with a duration of 5 msec. After 60 min. equilibration, dose response curves to cumulative concentrations of isoprenaline were constructed for chronotropic effect, i.e. increase in frequency (atria) and positive inotropic effect, i.e. increase in contractility (papillary muscle). After wash-out similar curves were constructed for the compounds according to the invention. The positive inotropic agent dopamine was included for comparison. In order to establish the maximal chronotropic and inotropic responses of the preparations, isoprenaline was added immediately after the maximal concentrations of the compounds. The maximal effects of the compounds compared with the maximal effect of isoprenaline are expressed as intrinsic activity (ISA).

[1] = tested on: rabbit right ventricle papillary muscle; assay: Positive inotropic effect (contractility) in isolated electrically driven papillary muscle; assay type: cell-based; settings: Oryctolagus cuniculus; for Emax: papillary muscle, read-out: Tmax ISA; for EC50: rabbit right ventricle papillary muscle, read-out: Tmax EC50
Protocol: as §1

[2] = intrinsic activity: maximal effect compared with maximal effect of isoprenaline
[3] = driven at 1 Hz, Krebs-buffer pH 7.4, 32°C
[4] = Tested after β-blockade, intrinsic activity vs isoprenaline

Compound | Emax (rabbit right atria; [2]) [%] | EC50 (rabbit right atria) [µM] | positive chronotropic effect (rabbit right atria) | Emax [1, 2] [%] | EC50 [1, 3] [µM] | Emax (rabbit right atria; [4]) [%] | Emax [1, 4] [%] | EC50 ([1]; Tested after β-blockade) [µM]
NCCc1ccc(O)c(O)c1 [Dopamine, reference compound] | 91 | 14.2 | marked positive chronotropic effect in doses which caused positive inotropy | 78 | 19.7 | – | – | –
CCCN1CCCC(c2cc(O)cc(O)c2)C1 (centres unmarked) [Example 1, 3=(3,5=Dihydroxyehenyl)N-n-eroeyleiperidine hydrobromide] | 0 | – | no positive chronotropic effect | 30 | 107 | – | – | –
CCN1CCCC(c2cc(O)cc(O)c2)C1 (centres unmarked) [Example 2, 3-(3,5-Dihydroxyehenyl)-N-ethylpiperidine hydrobromide] | 0 | – | – | 32 | 298 | – | – | –
CN1CCCC(c2cc(O)cc(O)c2)C1 (centres unmarked) [Example 3, 3-(3,5-Dihydroxyphenl)-N-methlpiperidine] | 0 | – | – | 37 | 11 | – | – | –
CCCCN1CCCC(c2cc(O)cc(O)c2)C1 (centres unmarked) [Example 5] | – | – | – | – | – | 0 | 42 | 18.4
CCCCCN1CCCC(c2cc(O)cc(O)c2)C1 (centres unmarked) [Example 6] | 0 | – | – | 43 | 0.24 | – | – | –
CC(C)N1CCCC(c2cc(O)cc(O)c2)C1 (centres unmarked) [Example 7] | – | – | – | – | – | 0 | 26 | 43
CC(C)NCC(O)c1ccc(O)c(O)c1 (centres unmarked) [Isoprenaline, reference compound] | 100 | 0.003 | marked positive chronotropy in doses significantly lower than those producing positive inotropy | 100 | 0.01 | – | – | –
